Where a SMILES comes first, the peptide text is derived from it. Bridges are numbered along the chain shown (N, C = ends). [ ]: non-standard residue; d: D form. The star is where a group is joined. hPhe(3-Cl-4-CF3) = N[C@@H](CCc1ccc(C(F)(F)F)c(Cl)c1)C(=O)O; NPrPhe(4-CF3) = CCCN[C@@H](Cc1ccc(C(F)(F)F)cc1)C(=O)O; NEtPhe(4-Me) = CCN[C@@H](Cc1ccc(C)cc1)C(=O)O; NMeGly(cPent) = CN[C@H](C(=O)O)C1CCCC1; Hyp = O=C(O)[C@@H]1C[C@@H](O)CN1; NMeD = CN[C@@H](CC(=O)O)C(=O)O; NMeL = CN[C@@H](CC(C)C)C(=O)O; Morpholide = C1CN(*)CCO1; NMeA = CN[C@@H](C)C(=O)O; Ac5c = NC1(C(=O)O)CCCC1; Aze = O=C(O)[C@@H]1CCN1; Ac4c = NC1(C(=O)O)CCC1; NEtG = CCNCC(=O)O; Sar = CNCC(=O)O
Tests used:
[1] = molecular target: GDP-bound NRAS wild-type protein (Homo sapiens, UniProt P01111); assay: Binding to NRAS by surface plasmon resonance (SPR), KD and KD ratio to KRAS
GDP-bound NRAS wild-type protein, sequence (P01111 whole entry): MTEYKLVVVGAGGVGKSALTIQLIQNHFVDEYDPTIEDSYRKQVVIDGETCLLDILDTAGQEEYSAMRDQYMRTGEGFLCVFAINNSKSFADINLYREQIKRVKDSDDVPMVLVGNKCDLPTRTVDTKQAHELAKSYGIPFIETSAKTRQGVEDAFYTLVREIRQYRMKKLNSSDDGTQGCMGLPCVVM
Summary of the method: (§1)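 Recombinant RAS proteins bearing a biotinylated Avi tag and loaded with GDP served as the captured ligand, recaptured fresh every cycle. Binding responses were referenced to an uncoated surface and a buffer-only blank cycle. Dissociation constants were obtained by 1:1 model fitting at 30°C.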

HRAS wild-type protein = HRAS wild-type protein (Homo sapiens, UniProt P01112); assay: Binding to HRAS by surface plasmon resonance (SPR), KD and KD ratio to KRAS
HRAS wild-type protein, sequence (P01112 whole entry): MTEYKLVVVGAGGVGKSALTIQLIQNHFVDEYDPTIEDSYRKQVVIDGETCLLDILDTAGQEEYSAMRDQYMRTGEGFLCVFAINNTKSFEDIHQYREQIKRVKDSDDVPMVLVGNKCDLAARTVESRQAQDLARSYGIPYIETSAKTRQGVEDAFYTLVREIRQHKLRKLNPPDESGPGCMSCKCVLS
Summary of the method: as §1

[2] = test system: human lung cancer strain NCI-H441; format: cell-based
Summary of the method: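 Signal came from […] measured per well once the reagent was added. Beforehand, cells were cultured at 37°C and 5% carbon dioxide on a compound series serially diluted in dimethyl sulfoxide.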

[3] = ratio of KD for GDP-bound NRAS wild-type protein to KD for KRAS
[4] = ratio of KD for HRAS wild-type protein to KD for KRAS
[5] = ratio of the KD value with respect to GDP-bound NRAS wild-type protein to the KD value with respect to KRAS
[6] = ratio of the KD value with respect to HRAS wild-type protein to the KD value with respect to KRAS

Row | Compound | IC50 [2] [nM] | NRAS /KRAS ([1]; ratio of KD value for GDP-bound NRAS wild-type protein to KD value for KRAS (SPR)) | HRAS /KRAS (HRAS wild-type protein; ratio of KD value for HRAS wild-type protein to KD value for KRAS (SPR)) | NRAS /KRAS [1, 3] | HRAS /KRAS (HRAS wild-type protein; [4]) | NRAS /KRAS [1, 5] | HRAS /KRAS (HRAS wild-type protein; [6])
1 | CCO[C@@H]1C[C@H]2C(=O)NC3(CCC3)C(=O)N(C)[C@@H](C3CCCC3)C(=O)N(C)[C@H](C(=O)N3CCOCC3)CC(=O)N(C)[C@@H](CC(C)C)C(=O)N[C@@H]([C@@H](C)CC)C(=O)N(C)CC(=O)N(C)[C@H]3CCCCCN(C3=O)[C@@H](Cc3ccc4ccsc4c3)C(=O)N(C)CC(=O)N[C@@H](CCc3cc(F)c(C(F)(F)F)c(F)c3)C(=O)N2C1 [PP0921] | 139 |  |  | B (a compound having 3 or more and less than 10 is denoted as B) | B (a compound having 3 or more and less than 10 is denoted as B) |  | 
2 | CCC[C@H]1C(=O)N[C@@H]([C@@H](C)CC)C(=O)N(C)CC(=O)N(C)[C@H]2C/C=C\CCN(C2=O)[C@@H](Cc2ccc(C(F)(F)F)cc2)C(=O)N(C)CC(=O)N[C@@H](CCc2ccc3sc(C)c(C)c3c2)C(=O)N2C[C@H](OCC)C[C@H]2C(=O)NC2(CC(C)(C)C2)C(=O)N(C)[C@@H](C(CC)CC)C(=O)N(C)[C@H](C(=O)N(C)C)CC(=O)N1C [PP2900] | 14.5 |  |  | AA (a compound having 20 or more is denoted as AA) | A (a compound having 10 or more and less than 20 is denoted as A) |  | 
3 | CC[C@H](C)[C@@H]1NC(=O)[C@H](CC(C)C)N(C)C(=O)C[C@@H](C(=O)N2CCOCC2)N(C)C(=O)[C@H](C2CCCC2)N(C)C(=O)C2(CCCC2)NC(=O)[C@@H]2CCCN2C(=O)[C@H](CCc2cc(F)c(C(F)(F)F)c(F)c2)NC(=O)CN(C)C(=O)[C@H](Cc2ccc(C(F)(F)F)cc2)N2CCCCC[C@@H](C2=O)N(C)C(=O)[C@H](C)NC1=O [PP0481] | > 1000 |  |  |  |  | B (a compound having 3 or more and less than 10 is denoted as B) | B (a compound having 3 or more and less than 10 is denoted as B)
4 | CC[C@H](C)[C@@H]1NC(=O)[C@H](CC(C)C)N(C)C(=O)C[C@@H](C(=O)N2CCOCC2)N(C)C(=O)[C@H](C2CCCC2)N(C)C(=O)C2(CCCC2)NC(=O)[C@@H]2CCCN2C(=O)[C@H](CCc2ccc(C(F)(F)F)c(Cl)c2)NC(=O)CN(C)C(=O)[C@H](Cc2ccc(C)cc2)N(CC)C(=O)CN(CC)C(=O)CN(C)C1=O [PP0027] ([NMeL]I[Sar][NEtG][NEtPhe(4-Me)][Sar][hPhe(3-Cl-4-CF3)]P[Ac5c][NMeGly(cPent)][NMeD]-Morpholide; lactam N-11) | 17.1 |  |  | C (A compound having a KD ratio of 0.1 or more and less than 3 is denoted as C) | C (A compound having a KD ratio of 0.1 or more and less than 3 is denoted as C) |  | 
5 | CCCN(C)C(=O)[C@@H]1CC(=O)N(C)[C@@H](CCOC)C(=O)N[C@@H]([C@@H](C)CC)C(=O)N(C)CC(=O)N(C)[C@H]2C/C=C\CCN(C2=O)[C@@H](Cc2ccc(C(F)(F)F)cc2)C(=O)N(C)CC(=O)N[C@@H](CCc2cc(F)c(C(F)(F)F)c(F)c2)C(=O)N2C[C@@H](C)C[C@H]2C(=O)NC2(CC(C)(C)C2)C(=O)N(C)[C@@H](C2CCCC2)C(=O)N1C [PP1974] | 50 |  |  |  |  | A (a compound having 10 or more and less than 20 is denoted as A) | A (a compound having 10 or more and less than 20 is denoted as A)
6 | CC[C@H](C)[C@@H]1NC(=O)[C@H](CC(C)C)N(C)C(=O)C[C@@H](C(=O)N2CCOCC2)N(C)C(=O)[C@H](C2CCCC2)N(C)C(=O)C2(CCCC2)NC(=O)[C@@H]2CCCN2C(=O)[C@H](CCc2cc(F)c(C(F)(F)F)c(F)c2)NC(=O)CN(C)C(=O)[C@H](Cc2ccc(C(F)(F)F)cc2)N2CCCC[C@@H](C2=O)N(C)C(=O)CN(C)C1=O [PP0552] | 2.8 |  |  |  |  | B (a compound having 3 or more and less than 10 is denoted as B) | B (a compound having 3 or more and less than 10 is denoted as B)
7 | CCCCO[C@H]1CCN2C(=O)[C@H](CCc3cc(F)c(C(F)(F)F)c(F)c3)NC(=O)CN(C)C(=O)[C@H](Cc3ccc(C(F)(F)F)cc3)N3CCCC[C@@H](C3=O)N(C)C(=O)CN(C)C(=O)[C@H]([C@@H](C)CC)NC(=O)[C@H](CC(C)C)N(C)C(=O)C[C@@H](C(=O)N3CCOCC3)N(C)C(=O)[C@H](C3CCCC3)N(C)C(=O)C3(CCC3)NC(=O)[C@H]12 [PP1071] | 24.7 |  |  | B (a compound having 3 or more and less than 10 is denoted as B) | B (a compound having 3 or more and less than 10 is denoted as B) |  | 
8 | CC[C@H](C)[C@@H]1NC(=O)[C@H](C)N(C)C(=O)C[C@@H](C(=O)N2CCOCC2)N(C)C(=O)[C@H](C2CCCC2)N(C)C(=O)C2(CCC2)NC(=O)[C@@H]2CC(F)(F)CN2C(=O)[C@H](CCc2cc(F)c(C(F)(F)F)c(F)c2)NC(=O)CN(C)C(=O)[C@H](Cc2ccc(C(F)(F)F)cc2)N2CCCCC[C@@H](C2=O)N(C)C(=O)CN(C)C1=O [PP0471] | 37.7 |  |  |  |  | B (a compound having 3 or more and less than 10 is denoted as B) | B (a compound having 3 or more and less than 10 is denoted as B)
9 | CCC[C@H]1C(=O)N[C@@H]([C@@H](C)CC)C(=O)N(C)CC(=O)N(C)[C@H]2C/C=C\CCN(C2=O)[C@@H](Cc2ccc(C(F)(F)F)cc2)C(=O)N(C)CC(=O)N[C@@H](CCc2ccc(C(F)(F)F)c(C3CC3)c2)C(=O)N2C[C@H](OCC)C[C@H]2C(=O)NC2(CC(C)(C)C2)C(=O)N(C)[C@@H](C2CCCC2)C(=O)N(C)[C@H](C(=O)N(C)C)CC(=O)N1C [PP2852] | 8.7 |  |  | B (a compound having 3 or more and less than 10 is denoted as B) | B (a compound having 3 or more and less than 10 is denoted as B) |  | 
10 | CCO[C@@H]1C[C@H]2C(=O)NC3(CC(C)(C)C3)C(=O)N(C)[C@@H](C(CC)CC)C(=O)N(C)[C@H](C(=O)N3CCCC3)CC(=O)N(C)[C@@H](COC)C(=O)N[C@@H]([C@@H](C)CC)C(=O)N(C)CC(=O)N(C)[C@H]3C/C=C\CCN(C3=O)[C@@H](Cc3ccc(C(F)(F)F)cc3)C(=O)N(C)CC(=O)N[C@@H](CCc3ccc(Cl)c(Cl)c3)C(=O)N2C1 [PP2174] | 24 |  |  |  |  | AA (a compound having 20 or more is denoted as AA) | A (a compound having 10 or more and less than 20 is denoted as A)

Further lines, with some results ahead:

Row | IC50 [2] [nM] | Compound | NRAS /KRAS ([1]; ratio of KD value for GDP-bound NRAS wild-type protein to KD value for KRAS (SPR)) | HRAS /KRAS (HRAS wild-type protein; ratio of KD value for HRAS wild-type protein to KD value for KRAS (SPR)) | NRAS /KRAS [1, 3] | HRAS /KRAS (HRAS wild-type protein; [4]) | NRAS /KRAS [1, 5] | HRAS /KRAS (HRAS wild-type protein; [6])
11 | 7.4 | CCCN(C)C(=O)[C@@H]1CC(=O)N(C)[C@@H](C)C(=O)N[C@@H]([C@@H](C)CC)C(=O)N(C)CC(=O)N(C)[C@H]2C/C=C\CCN(C2=O)[C@@H](Cc2ccc(C(F)(F)F)cc2)C(=O)N(C)CC(=O)N[C@@H](CCc2cc(F)c(C(F)(F)F)c(F)c2)C(=O)N2C[C@H](OCC)C[C@H]2C(=O)NC2(CC(F)(F)C2)C(=O)N(C)[C@@H](C2CCCC2)C(=O)N1C [PP1731] | A (a compound having 10 or more and less than 20 is denoted as A) | A (a compound having 10 or more and less than 20 is denoted as A) |  |  |  | 
12 | 11.5 | CCO[C@@H]1C[C@H]2C(=O)NC3(CCC3)C(=O)N(C)[C@@H](C3CCCC3)C(=O)N(C)[C@H](C(=O)N(C)C)CC(=O)N(C)[C@@H](CC)C(=O)N[C@@H]([C@@H](C)CC)C(=O)N(C)CC(=O)N(C)[C@H]3CCCCN(C3=O)[C@@H](Cc3ccc(C(F)(F)F)cc3)C(=O)N(C)CC(=O)N[C@@H](CCc3ccc(C(F)(F)F)cc3F)C(=O)N2C1 [PP0885] |  |  | C (A compound having a KD ratio of 0.1 or more and less than 3 is denoted as C) | B (a compound having 3 or more and less than 10 is denoted as B) |  | 
13 | 2.9 | C=CC[C@H]1C(=O)N[C@@H]([C@@H](C)CC)C(=O)N(C)CC(=O)N(C)[C@H]2CCCCN(C2=O)[C@@H](Cc2ccc(C(F)(F)F)cc2)C(=O)N(C)CC(=O)N[C@@H](CCc2cc(F)c(C(F)(F)F)c(F)c2)C(=O)N2C[C@H](OCC)C[C@H]2C(=O)NC2(CCC2)C(=O)N(C)[C@@H](C2CCCC2)C(=O)N(C)[C@H](C(=O)N(C)C)CC(=O)N1C [PP0695] |  |  |  |  | C (A compound having a KD ratio of 0.1 or more and less than 3 is denoted as C) | C (A compound having a KD ratio of 0.1 or more and less than 3 is denoted as C)
14 | 5390 | CCO[C@@H]1C[C@H]2C(=O)NC3(CCC3)C(=O)N(C)[C@@H](C3CCCC3)C(=O)N(C)[C@H](C(=O)N(C)C)CC(=O)N(C)C[C@@H](C)C(=O)N[C@@H]([C@@H](C)CC)C(=O)N(C)CC(=O)N(C)[C@H]3CCCCN(C3=O)[C@@H](Cc3ccc(C(F)(F)F)cc3)C(=O)N(C)CC(=O)N[C@@H](CCc3cc(F)c(C(F)(F)F)c(F)c3)C(=O)N2C1 [PP0706] |  |  |  |  | B (a compound having 3 or more and less than 10 is denoted as B) | B (a compound having 3 or more and less than 10 is denoted as B)
15 | 7 | CCCN1C(=O)[C@@H]2CCN2C(=O)[C@H](C)N(C)C(=O)[C@H]([C@@H](C)CC)NC(=O)[C@H](CC(C)C)N(C)C(=O)C[C@@H](C(=O)N(C)C)NC(=O)[C@H](C2CCCC2)N(C)C(=O)C2(CCC2)NC(=O)[C@@H]2C[C@@H](OCC)CN2C(=O)[C@H](CCc2ccc(C(F)(F)F)c(Cl)c2)NC(=O)CN(C)C(=O)[C@@H]1Cc1ccc(C(F)(F)F)cc1 [PP0384] ([NMeL]I[NMeA][Aze][NPrPhe(4-CF3)][Sar][hPhe(3-Cl-4-CF3)][Hyp](Et)[Ac4c][NMeGly(cPent)]D-NMe2; lactam N-11) |  |  | C (A compound having a KD ratio of 0.1 or more and less than 3 is denoted as C) | B (a compound having 3 or more and less than 10 is denoted as B) |  | 

Reference: EP4603105A1, “PHARMACEUTICAL COMPOSITION CONTAINING CYCLIC COMPOUND HAVING SELECTIVE KRAS INHIBITORY EFFECT AGAINST HRAS AND NRAS” (CHUGAI SEIYAKU KABUSHIKI KAISHA, priority 2022, dated 2024)
